Assay [1] addresses T1, Lysine-specific demethylase 4C (Homo sapiens, UniProt Q9H3R0).
T1 sequence (Q9H3R0 whole entry): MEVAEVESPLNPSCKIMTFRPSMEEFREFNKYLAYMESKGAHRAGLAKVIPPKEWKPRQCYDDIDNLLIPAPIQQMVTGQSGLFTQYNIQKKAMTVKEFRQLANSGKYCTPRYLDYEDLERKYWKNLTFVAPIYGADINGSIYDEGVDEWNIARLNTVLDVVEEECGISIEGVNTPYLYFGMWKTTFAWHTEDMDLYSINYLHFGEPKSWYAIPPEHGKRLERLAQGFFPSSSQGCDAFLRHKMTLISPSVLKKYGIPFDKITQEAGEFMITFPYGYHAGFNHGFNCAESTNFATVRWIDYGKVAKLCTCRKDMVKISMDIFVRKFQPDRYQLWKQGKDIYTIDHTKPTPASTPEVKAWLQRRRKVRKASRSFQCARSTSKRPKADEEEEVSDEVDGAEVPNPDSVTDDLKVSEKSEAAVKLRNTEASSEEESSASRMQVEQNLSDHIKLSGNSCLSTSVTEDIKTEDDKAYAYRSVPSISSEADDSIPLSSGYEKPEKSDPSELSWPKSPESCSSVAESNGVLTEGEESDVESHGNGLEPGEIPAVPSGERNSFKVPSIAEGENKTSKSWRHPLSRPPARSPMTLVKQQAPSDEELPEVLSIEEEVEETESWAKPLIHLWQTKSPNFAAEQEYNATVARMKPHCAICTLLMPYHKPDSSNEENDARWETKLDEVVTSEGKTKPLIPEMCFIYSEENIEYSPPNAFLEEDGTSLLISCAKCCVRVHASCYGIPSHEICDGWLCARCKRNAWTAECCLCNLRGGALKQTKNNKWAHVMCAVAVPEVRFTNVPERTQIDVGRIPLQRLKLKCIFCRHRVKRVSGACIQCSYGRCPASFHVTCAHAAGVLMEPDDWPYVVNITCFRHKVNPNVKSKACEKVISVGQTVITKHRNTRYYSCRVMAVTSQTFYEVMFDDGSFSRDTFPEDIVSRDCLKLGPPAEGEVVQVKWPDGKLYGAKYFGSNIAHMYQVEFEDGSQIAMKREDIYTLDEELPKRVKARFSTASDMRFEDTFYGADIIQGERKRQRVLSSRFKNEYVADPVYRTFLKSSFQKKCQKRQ
The assay is described as follows: Inhibition of recombinant N-terminal FLAG-tagged Tev-KDM4C (1 to 366 residues) (unknown origin) using […] as substrate preincubated for 10 mins followed by substrate addition by rapid fire demethylase assay.

For assay [2], the target named is T2, Lysine-specific demethylase 5B (Homo sapiens, UniProt Q9UGL1).
Assay [3] can be described thus: Antiproliferative activity against human KYSE-150 cells expressing KDM4C. Type of assay: functional, cell-based.
Assay [4] deals with Lysine-specific demethylase 5A (Homo sapiens, UniProt P29375).
The target of assay [5] is T3, Lysine-specific histone demethylase 1A (Homo sapiens, UniProt O60341).
Assay [6] deals with T3, Lysine-specific histone demethylase 1A. As to the kind of experiment: biochemical.
In assay [7] the target is T4, Amine oxidase [flavin-containing] B (Homo sapiens, UniProt P27338).
T4 sequence (P27338 whole entry): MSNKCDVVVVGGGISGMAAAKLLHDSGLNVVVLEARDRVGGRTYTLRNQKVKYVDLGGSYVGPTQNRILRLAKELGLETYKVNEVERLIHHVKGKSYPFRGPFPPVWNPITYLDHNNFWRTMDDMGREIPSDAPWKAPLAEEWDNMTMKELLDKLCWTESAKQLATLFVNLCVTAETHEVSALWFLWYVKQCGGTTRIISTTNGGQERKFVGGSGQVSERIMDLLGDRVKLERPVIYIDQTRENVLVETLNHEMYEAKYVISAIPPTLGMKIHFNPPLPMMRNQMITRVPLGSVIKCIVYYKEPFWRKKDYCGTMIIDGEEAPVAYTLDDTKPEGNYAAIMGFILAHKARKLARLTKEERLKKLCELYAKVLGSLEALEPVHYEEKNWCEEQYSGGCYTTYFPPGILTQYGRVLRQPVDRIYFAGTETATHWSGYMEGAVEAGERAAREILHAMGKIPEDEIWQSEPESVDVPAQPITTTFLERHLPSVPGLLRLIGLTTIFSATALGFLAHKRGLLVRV

The target in assay [8] is T2, Lysine-specific demethylase 5B. This is another data set of the same source.
Assay [9] has as its target T5, Lysine-specific demethylase 2B (Homo sapiens, UniProt Q8NHM5).
T5 sequence (Q8NHM5 whole entry): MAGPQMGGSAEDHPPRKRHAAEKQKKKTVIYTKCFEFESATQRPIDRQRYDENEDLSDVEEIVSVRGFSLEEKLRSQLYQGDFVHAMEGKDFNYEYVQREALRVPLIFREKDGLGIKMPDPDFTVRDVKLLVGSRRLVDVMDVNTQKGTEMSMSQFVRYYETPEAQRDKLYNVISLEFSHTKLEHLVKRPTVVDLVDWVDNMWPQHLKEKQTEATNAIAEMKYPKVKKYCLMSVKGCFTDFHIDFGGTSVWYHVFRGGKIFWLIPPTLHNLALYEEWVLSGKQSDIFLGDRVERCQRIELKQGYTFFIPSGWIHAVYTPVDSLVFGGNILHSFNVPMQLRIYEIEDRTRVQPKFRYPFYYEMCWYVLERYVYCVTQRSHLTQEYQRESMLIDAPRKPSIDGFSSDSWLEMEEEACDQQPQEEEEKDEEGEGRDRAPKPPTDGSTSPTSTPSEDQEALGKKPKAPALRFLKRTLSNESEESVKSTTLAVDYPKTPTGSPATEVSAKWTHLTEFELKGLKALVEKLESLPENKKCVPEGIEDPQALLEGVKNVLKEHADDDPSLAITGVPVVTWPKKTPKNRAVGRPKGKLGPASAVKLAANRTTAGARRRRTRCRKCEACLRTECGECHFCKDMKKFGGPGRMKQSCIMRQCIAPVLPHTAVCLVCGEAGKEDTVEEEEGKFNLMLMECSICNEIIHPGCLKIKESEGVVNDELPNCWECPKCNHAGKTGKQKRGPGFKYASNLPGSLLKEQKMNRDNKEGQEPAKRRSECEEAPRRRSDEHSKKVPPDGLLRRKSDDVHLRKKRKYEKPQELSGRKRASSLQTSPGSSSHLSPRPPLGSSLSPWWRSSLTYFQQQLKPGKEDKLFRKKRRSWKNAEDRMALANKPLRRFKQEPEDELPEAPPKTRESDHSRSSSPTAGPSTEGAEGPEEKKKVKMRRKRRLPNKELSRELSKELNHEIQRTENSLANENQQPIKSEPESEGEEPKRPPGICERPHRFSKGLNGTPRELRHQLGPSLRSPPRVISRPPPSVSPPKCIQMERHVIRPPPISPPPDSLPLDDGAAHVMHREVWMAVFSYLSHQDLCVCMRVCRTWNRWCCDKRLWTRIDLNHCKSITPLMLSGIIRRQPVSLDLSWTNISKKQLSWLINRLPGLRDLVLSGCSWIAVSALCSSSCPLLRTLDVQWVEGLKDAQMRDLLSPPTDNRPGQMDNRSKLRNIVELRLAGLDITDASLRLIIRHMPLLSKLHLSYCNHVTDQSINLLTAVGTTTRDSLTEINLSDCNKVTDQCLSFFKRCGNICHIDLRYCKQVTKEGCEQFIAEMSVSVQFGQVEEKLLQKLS
The assay is described as follows: biochemical.

The target in assay [10] is Lysine-specific demethylase 6A (Homo sapiens, UniProt O15550).
Lysine-specific demethylase 6A, sequence (O15550 whole entry): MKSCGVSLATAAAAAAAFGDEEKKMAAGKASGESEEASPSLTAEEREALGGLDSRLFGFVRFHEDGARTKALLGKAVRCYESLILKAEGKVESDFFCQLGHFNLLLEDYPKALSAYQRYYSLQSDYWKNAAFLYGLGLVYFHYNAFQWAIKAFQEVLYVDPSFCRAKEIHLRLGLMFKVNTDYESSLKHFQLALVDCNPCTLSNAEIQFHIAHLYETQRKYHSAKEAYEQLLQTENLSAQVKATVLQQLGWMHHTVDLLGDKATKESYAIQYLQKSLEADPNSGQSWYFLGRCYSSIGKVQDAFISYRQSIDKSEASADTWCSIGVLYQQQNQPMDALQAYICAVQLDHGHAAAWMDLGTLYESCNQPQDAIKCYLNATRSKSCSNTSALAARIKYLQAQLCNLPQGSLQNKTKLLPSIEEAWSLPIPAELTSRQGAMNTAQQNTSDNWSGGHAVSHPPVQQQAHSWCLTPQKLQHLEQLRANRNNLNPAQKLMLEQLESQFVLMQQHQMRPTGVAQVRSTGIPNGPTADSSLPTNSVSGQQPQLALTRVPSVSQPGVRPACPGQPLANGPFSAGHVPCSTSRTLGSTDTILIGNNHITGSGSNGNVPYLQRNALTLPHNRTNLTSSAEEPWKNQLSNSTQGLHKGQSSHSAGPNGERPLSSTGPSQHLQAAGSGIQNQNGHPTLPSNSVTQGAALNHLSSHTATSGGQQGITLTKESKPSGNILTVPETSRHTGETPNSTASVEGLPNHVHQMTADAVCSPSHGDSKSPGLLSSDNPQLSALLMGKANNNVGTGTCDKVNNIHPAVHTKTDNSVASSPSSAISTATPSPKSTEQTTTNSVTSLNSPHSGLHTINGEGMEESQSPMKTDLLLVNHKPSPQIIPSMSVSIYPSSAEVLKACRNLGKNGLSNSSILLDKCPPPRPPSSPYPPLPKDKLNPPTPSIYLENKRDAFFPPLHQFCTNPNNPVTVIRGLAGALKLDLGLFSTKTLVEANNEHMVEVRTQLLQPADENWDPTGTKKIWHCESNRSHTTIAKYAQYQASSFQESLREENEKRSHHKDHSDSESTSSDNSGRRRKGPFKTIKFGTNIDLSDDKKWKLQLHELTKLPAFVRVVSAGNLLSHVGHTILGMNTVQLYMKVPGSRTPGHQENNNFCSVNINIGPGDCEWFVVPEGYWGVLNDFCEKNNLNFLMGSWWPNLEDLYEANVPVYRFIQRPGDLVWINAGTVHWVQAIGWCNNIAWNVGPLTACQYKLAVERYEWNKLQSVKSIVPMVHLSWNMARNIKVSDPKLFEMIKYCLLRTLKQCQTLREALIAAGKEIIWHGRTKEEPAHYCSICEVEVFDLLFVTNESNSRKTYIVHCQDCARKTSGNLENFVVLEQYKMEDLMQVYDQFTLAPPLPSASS

Lysine-specific demethylase 5A, sequence (P29375 whole entry): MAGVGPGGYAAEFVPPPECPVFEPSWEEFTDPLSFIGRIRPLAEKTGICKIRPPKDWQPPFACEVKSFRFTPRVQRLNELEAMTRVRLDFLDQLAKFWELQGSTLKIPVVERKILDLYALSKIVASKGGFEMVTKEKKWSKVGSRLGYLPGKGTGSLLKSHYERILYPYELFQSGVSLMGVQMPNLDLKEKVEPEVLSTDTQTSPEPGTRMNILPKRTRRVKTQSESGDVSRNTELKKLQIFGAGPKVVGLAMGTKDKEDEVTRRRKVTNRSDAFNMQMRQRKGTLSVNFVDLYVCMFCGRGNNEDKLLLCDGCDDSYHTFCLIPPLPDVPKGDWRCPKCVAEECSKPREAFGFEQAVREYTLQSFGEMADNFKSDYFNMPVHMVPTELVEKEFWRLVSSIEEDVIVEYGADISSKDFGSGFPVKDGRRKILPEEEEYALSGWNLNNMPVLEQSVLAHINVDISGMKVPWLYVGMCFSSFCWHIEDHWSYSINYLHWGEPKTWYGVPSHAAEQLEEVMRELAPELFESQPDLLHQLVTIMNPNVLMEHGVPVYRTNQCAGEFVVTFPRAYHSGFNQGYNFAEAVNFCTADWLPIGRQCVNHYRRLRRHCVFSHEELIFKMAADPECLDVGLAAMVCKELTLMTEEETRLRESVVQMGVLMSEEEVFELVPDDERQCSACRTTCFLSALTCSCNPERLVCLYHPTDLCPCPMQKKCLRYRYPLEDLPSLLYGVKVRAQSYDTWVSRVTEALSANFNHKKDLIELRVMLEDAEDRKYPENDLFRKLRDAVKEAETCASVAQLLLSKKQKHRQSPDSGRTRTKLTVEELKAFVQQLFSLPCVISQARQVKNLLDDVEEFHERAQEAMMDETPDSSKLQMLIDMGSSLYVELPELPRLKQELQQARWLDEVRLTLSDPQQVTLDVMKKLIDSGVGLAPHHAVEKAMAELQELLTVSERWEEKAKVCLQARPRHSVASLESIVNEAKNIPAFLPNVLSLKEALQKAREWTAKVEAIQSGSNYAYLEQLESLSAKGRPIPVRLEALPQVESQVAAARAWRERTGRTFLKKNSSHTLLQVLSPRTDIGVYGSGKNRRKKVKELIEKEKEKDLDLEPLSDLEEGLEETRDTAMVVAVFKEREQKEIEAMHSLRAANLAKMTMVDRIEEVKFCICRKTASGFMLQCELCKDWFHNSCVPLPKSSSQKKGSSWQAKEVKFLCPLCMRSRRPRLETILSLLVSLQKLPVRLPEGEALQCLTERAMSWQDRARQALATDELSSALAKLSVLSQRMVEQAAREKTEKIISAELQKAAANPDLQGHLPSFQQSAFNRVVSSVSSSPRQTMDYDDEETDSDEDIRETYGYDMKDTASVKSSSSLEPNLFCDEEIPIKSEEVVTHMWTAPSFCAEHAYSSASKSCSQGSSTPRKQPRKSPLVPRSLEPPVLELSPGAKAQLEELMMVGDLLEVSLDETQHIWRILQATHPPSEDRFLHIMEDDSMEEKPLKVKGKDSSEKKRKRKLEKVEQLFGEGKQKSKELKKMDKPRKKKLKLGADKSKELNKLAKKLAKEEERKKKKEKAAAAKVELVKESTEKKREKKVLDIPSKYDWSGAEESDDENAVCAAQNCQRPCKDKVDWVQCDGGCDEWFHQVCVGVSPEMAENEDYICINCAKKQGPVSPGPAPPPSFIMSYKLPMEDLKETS
T2 sequence (Q9UGL1 whole entry): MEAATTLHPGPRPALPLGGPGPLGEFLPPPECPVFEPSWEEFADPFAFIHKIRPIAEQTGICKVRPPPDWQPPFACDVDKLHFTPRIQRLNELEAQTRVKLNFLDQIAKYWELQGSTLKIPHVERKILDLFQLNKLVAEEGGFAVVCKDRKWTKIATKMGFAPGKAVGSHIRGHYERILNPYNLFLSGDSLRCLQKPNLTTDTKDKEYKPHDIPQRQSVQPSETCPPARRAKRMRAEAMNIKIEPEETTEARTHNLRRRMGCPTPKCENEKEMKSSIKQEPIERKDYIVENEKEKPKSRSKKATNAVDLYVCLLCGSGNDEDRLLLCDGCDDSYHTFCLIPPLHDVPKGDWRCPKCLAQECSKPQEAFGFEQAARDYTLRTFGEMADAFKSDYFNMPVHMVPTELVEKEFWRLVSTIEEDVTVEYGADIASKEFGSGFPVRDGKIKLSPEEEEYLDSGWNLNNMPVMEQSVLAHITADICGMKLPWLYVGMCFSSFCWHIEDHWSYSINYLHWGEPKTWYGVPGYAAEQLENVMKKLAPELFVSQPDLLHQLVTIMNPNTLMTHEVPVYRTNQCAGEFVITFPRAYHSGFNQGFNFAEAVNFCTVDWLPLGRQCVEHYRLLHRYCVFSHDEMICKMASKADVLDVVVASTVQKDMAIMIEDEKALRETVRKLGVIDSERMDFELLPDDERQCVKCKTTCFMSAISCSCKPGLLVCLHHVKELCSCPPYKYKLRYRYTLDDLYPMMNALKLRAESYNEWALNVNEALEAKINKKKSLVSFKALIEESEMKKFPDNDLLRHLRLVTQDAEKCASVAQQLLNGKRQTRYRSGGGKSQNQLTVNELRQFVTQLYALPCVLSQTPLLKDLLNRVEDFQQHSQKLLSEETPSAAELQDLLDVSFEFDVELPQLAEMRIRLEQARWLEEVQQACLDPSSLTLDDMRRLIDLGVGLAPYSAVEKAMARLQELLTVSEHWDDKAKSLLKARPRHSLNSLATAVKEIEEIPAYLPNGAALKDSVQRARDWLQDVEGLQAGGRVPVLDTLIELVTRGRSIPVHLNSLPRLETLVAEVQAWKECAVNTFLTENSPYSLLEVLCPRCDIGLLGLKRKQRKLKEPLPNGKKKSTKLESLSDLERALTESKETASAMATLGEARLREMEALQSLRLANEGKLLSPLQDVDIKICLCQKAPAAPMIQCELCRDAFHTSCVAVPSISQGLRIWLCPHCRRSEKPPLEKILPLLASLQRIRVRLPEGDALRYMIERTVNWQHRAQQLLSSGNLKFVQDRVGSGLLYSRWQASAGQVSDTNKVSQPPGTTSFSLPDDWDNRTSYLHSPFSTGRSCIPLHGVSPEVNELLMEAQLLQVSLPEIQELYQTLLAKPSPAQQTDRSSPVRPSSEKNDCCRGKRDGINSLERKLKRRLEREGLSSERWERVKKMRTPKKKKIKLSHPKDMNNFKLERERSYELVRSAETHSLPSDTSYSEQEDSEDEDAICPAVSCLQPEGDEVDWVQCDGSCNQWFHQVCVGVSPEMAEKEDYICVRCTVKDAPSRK

As usually defined, the IC50 is the concentration that inhibits the measured activity by half. With `Cn1cnc(-c2nccc3c(O)nc(OCCCC(F)(F)F)nc23)c1`, the IC50 in assay [1] is 100 nM; in assay [2], less than 100 nM; in assay [3], 100 nM; in assay [4], less than 100 nM.
On to `Nc1ccnc(N2CCC(N[C@@H]3C[C@H]3c3ccccc3)CC2)n1`, for which the concentration for half-maximal inhibition (IC50) in assay [5] is less than 100 nM.
Molecule `O=C(O)CC1(N2CCC(N[C@@H]3C[C@H]3c3ccccc3)CC2)CN(CCC(F)(F)F)C1` returned an IC50 in assay [5] of less than 100 nM.
Regarding `Oc1nc(Oc2cnn([C@@H]3CCCN(Cc4ccccc4)C3)c2)nc2cnccc12`, the IC50 was less than 100 nM in [1], less than 100 nM in assay [2], 100 nM in assay [3] and less than 100 nM in assay [4].
In the case of `CN1CCC(CN[C@@H]2C[C@H]2c2ccccc2)CC1` (racemic), the IC50 was found to be 6 nM in assay [6] and 25000 nM in assay [7].
As for `CN(C)CC(=O)N1CCC(CN[C@@H]2C[C@H]2c2ccccc2)(Cc2cccc(C#N)c2)CC1`, in assay [5], the IC50 is less than 100 nM.
As for `c1ccc(CN2CCC(CN[C@@H]3C[C@H]3c3ccccc3)CC2)cc1` (racemic), the results for the 50% inhibitory concentration (IC50) in assay [6] and in [7] were 6 nM and 25000 nM, respectively.
For `Oc1nc(Oc2cnn(CCN3CCOCC3)c2)nc2cnccc12`, the concentration for half-maximal inhibition (IC50) in [1] is less than 100 nM; in [2], less than 100 nM; in [3], 100 nM; in assay [4] it was less than 100 nM.
On to `CCS(=O)(=O)N1CC[C@H](n2cc(Oc3nc(O)c4ccncc4n3)cn2)C1`, for which the concentration for half-maximal inhibition (IC50) is less than 100 nM in assay [1], less than 100 nM in assay [2], 100 nM in assay [3] and less than 100 nM in assay [4].
`COC1(CN[C@@H]2C[C@H]2c2ccccc2)CCN(S(=O)(=O)c2ccn(C)n2)CC1` showed an IC50 in [5] of less than 100 nM.
Consider `CCN1CCC[C@H](CNCc2cc(C(=O)O)ccn2)C1=O`, for which the IC50 is less than 250 nM in [8], less than 250 nM in assay [9] and more than 2500 nM in assay [10].

These data come from ChEMBL document CHEMBL3784917, “Recent Progress in Histone Demethylase Inhibitors” (J Med Chem, 2016).
